In PubChem BioAssay (NCI):
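Compound exposure: 48 hours, 5 concentrations, 96-well plates. Here, GI50 denotes the concentration required for 50% inhibition of growth. TGI: concentration producing complete growth inhibition.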

Key:
Assay in all cases: DTP human tumour cell line panel, 48 h
[1] = tested on: 786-0 renal
[2] = tested on: A498 renal
[3] = tested on: A549 NSCLC
[4] = tested on: ACHN renal
[5] = tested on: BT-549 breast
[6] = tested on: CAKI-1 renal
[7] = tested on: CCRF-CEM leukemia
[8] = tested on: COLO 205 colon
[9] = tested on: DU-145 prostate
[10] = tested on: EKVX NSCLC
[11] = tested on: HCC-2998 colon
[12] = tested on: HCT-116 colon
[13] = tested on: HCT-15 colon
[14] = tested on: HL-60(TB) leukemia
[15] = tested on: HOP-62 NSCLC
[16] = tested on: HOP-92 NSCLC
[17] = tested on: HS 578T breast
[18] = tested on: HT29 colon
[19] = tested on: IGROV1 ovarian
[20] = tested on: KM12 colon
[21] = tested on: LOX IMVI melanoma
[22] = tested on: M14 melanoma
[23] = tested on: MALME-3M melanoma
[24] = tested on: MCF7 breast
[25] = tested on: MDA-MB-231 breast
[26] = tested on: MDA-MB-435
[27] = tested on: MDA-MB-468 breast
[28] = tested on: MOLT-4 leukemia
[29] = tested on: NCI-H226 lung
[30] = tested on: NCI-H23 lung
[31] = tested on: NCI-H460 lung
[32] = tested on: NCI-H522 lung
[33] = tested on: NCI/ADR-RES ovarian
[34] = tested on: OVCAR-3 ovarian
[35] = tested on: OVCAR-5 ovarian
[36] = tested on: OVCAR-8 ovarian
[37] = tested on: PC-3 prostate
[38] = tested on: RPMI-8226 leukemia
[39] = tested on: RXF 393 renal
[40] = tested on: SF-268 CNS
[41] = tested on: SF-295 CNS
[42] = tested on: SF-539 CNS
[43] = tested on: SK-MEL-2 melanoma
[44] = tested on: SK-MEL-28 melanoma
[45] = tested on: SK-MEL-5 melanoma
[46] = tested on: SK-OV-3 ovarian
[47] = tested on: SN12C renal
[48] = tested on: SNB-19 CNS
[49] = tested on: SNB-75 CNS
[50] = tested on: SR leukemia
[51] = tested on: SW-620 colon
[52] = tested on: T-47D breast
[53] = tested on: TK-10 renal
[54] = tested on: U251 CNS
[55] = tested on: UACC-257 melanoma
[56] = tested on: UACC-62 melanoma
[57] = tested on: UO-31 renal

## Cc1ccc(S(=O)(=O)c2nc(-c3ccccc3)oc2S(=O)(=O)CC(=O)N2CCCC2)cc1
[1]
  GI50: 1.45 µM
  TGI: 2.93 µM
[2]
  GI50: 11.9 µM
  TGI: 24.3 µM
[3]
  GI50: 13.1 µM
  TGI: 29.1 µM
[4]
  GI50: 1.36 µM
  TGI: 2.65 µM
[5]
  GI50: 3.89 µM
  TGI: 11.8 µM
[6]
  GI50: 1.21 µM
  TGI: 2.5 µM
[7]
  GI50: 0.529 µM
  TGI: 2.95 µM
[8]
  GI50: 1.89 µM
  TGI: 4.38 µM
[9]
  GI50: 1.63 µM
  TGI: 3.37 µM
[10]
  GI50: 2.44 µM
  TGI: 7.76 µM
[11]
  GI50: 11.2 µM
  TGI: 24.1 µM
[12]
  GI50: 1.52 µM
  TGI: 3.34 µM
[13]
  GI50: 1.4 µM
  TGI: 2.92 µM
[14]
  GI50: 0.978 µM
  TGI: 3.48 µM
[15]
  GI50: 14.4 µM
  TGI: 31 µM
[16]
  GI50: 2.71 µM
  TGI: 8.32 µM
[17]
  GI50: 3.68 µM
  TGI: 28.2 µM
[18]
  GI50: 1.54 µM
  TGI: 4.05 µM
[19]
  GI50: 6.54 µM
  TGI: 20.8 µM
[20]
  GI50: 14.9 µM
  TGI: 32 µM
[21]
  GI50: 1.45 µM
  TGI: 2.82 µM
[22]
  GI50: 1.77 µM
  TGI: 4.15 µM
[23]
  GI50: 1.55 µM
  TGI: 2.95 µM
[24]
  GI50: 1.17 µM
  TGI: 2.9 µM
[25]
  GI50: 1.63 µM
  TGI: 3.11 µM
[26]
  GI50: 3.08 µM
  TGI: 13.8 µM
[27]
  GI50: 0.587 µM
  TGI: 1.97 µM
[28]
  GI50: 1.73 µM
  TGI: 5.22 µM
[29]
  GI50: 13.3 µM
  TGI: 34.7 µM
[30]
  GI50: 8.06 µM
  TGI: 23.6 µM
[31]
  GI50: 7 µM
  TGI: 22.5 µM
[32]
  GI50: 1.06 µM
  TGI: 2.49 µM
[33]
  GI50: 11.4 µM
  TGI: 65 µM
[34]
  GI50: 1.27 µM
  TGI: 2.66 µM
[35]
  GI50: 11 µM
  TGI: 23.4 µM
[36]
  GI50: 7.2 µM
  TGI: 25.1 µM
[37]
  GI50: 11.8 µM
  TGI: 30.7 µM
[38]
  GI50: 2.68 µM
  TGI: > 100 µM
[39]
  GI50: 1.08 µM
  TGI: 2.41 µM
[40]
  GI50: 12.2 µM
  TGI: 33.2 µM
[41]
  GI50: 12.2 µM
  TGI: 25 µM
[42]
  GI50: 1.54 µM
  TGI: 2.91 µM
[43]
  GI50: 13.1 µM
  TGI: 26.2 µM
[44]
  GI50: 1.82 µM
  TGI: 3.54 µM
[45]
  GI50: 12.5 µM
  TGI: 25.2 µM
[46]
  GI50: 15.6 µM
  TGI: 30.5 µM
[47]
  GI50: 6.68 µM
  TGI: 19.6 µM
[48]
  GI50: 14.5 µM
  TGI: 27.6 µM
[49]
  GI50: 3.89 µM
  TGI: 17.4 µM
[50]
  GI50: 1.49 µM
  TGI: 6.6 µM
[51]
  GI50: 0.801 µM
  TGI: 2.24 µM
[52]
  GI50: 1.78 µM
  TGI: 4.94 µM
[53]
  GI50: 1.7 µM
  TGI: 3.15 µM
[54]
  GI50: 15.5 µM
  TGI: 29.7 µM
[55]
  GI50: 1.73 µM
  TGI: 3.73 µM
[56]
  GI50: 4.53 µM
  TGI: 16.5 µM
[57]
  GI50: 1.36 µM
  TGI: 2.66 µM
